The record followed here is US10125100B2, “Kinase inhibitors” (Respivert Limited, priority 2014, dated 2018).

pIC50: −log10 of the molar value.

Broadly, the inhibition is the drop in the measured response relative to a control, in per cent. Broadly, the pIC50 is the negative decadic logarithm of the IC50, by convention in mol/L.

One series relates to mitosis in PBMCs. Put plainly: (g) Cell mitosis assay. The format is cell-based. The conditions noted are these: Homo sapiens, PBMC, 5 μg/mL. As for the experimental part: Peripheral blood mononucleocytes (PBMCs) from healthy subjects are separated from whole blood (Quintiles, London, UK) using a density gradient (Histopaque®-1077, Sigma-Aldrich, Poole, UK). The PBMCs (3 million cells per sample) are subsequently treated with 2% PHA (phytohaemagglutinin, Sigma-Aldrich, Poole, UK) for 48 hr, followed by a 20 hr exposure to varying concentrations of test compounds. At 2 hr before collection, PBMCs are treated with demecolcine (0.1 μg/mL; Invitrogen, Paisley, UK) to arrest cells in metaphase. To observe mitotic cells, PBMCs are permeabilized and fixed by adding Intraprep (50 μL; Beckman Coulter, France), and stained with anti-phospho-histone 3 ([…]; #9701; Cell Signalling, Danvers, Mass.) and propidium iodide (1 mg/mL; Sigma-Aldrich, Poole, UK) as previously described (Muehlbauer P. A. and Schuler M. J., Mutation Research, 2003, 537:117-130). Fluorescence is observed using an ATTUNE flow cytometer (Invitrogen, Paisley, UK), gating for lymphocytes.

Another series concerns the target p38 MAPKα (MAPK14) (Homo sapiens (Human), UniProt Q16539). As to the kind of experiment: p38 MAPKα enzyme inhibition (Method 2), Z-LYTE FRET. The format is biochemical. The gist of the method:
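Enzyme (200 ng/mL solution) was preincubated 2 h at RT with compound solutions of 1, 0.1, 0.01 or 0.001 μg/mL, and inhibition was read indirectly via MAPKAP-K2 activation/phosphorylation. After a 1 h RT reaction and 1 h protease development, phosphorylation was derived from the coumarin/fluorescein emission ratio.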

The target of the next series is c-Src (Homo sapiens (Human), UniProt P12931). Put plainly: c-Src enzyme inhibition, Z-LYTE FRET. The format is biochemical. Put shortly:
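Z-LYTE FRET peptide phosphorylation read as donor coumarin over acceptor fluorescein ratio after 1 hr protease development. Compounds (1–0.001 μg/mL) preincubated 2 hr at RT with enzyme; ATP solutions 60 μM for Syk, 800 μM for c-Src; kinase reaction 1 hr.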

The subject of a further series is Jurkat cells. As to the kind of experiment: (r) Cell cytotoxicity assay. The settings on record: 24 hours. It counts as cell-based, human. Put shortly:
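Viability read by flow cytometry as the fraction of propidium iodide-negative cells (7.5 μg/mL PI, 15 min), relative to 1.0% DMSO control. Beforehand, 1×10^5 Jurkat cells in RPMI/10% FBS were treated 24 h at 37° C., 5% CO2 with test compound at final 20, 5 or 1 μg/mL.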

The target of another series is Syk (Homo sapiens (Human), UniProt P43405). As to the kind of experiment: Syk enzyme inhibition, Z-LYTE FRET. It counts as biochemical. The gist of the method: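 Syk or c-Src enzyme (3000 or 2000 ng/mL solutions) was preincubated 2 h at RT with compound solutions at 1, 0.1, 0.01 or 0.001 µg/mL. Z-LYTE FRET peptide (8 µM solution) and ATP (800 µM solution for c-Src, 60 µM for Syk) were then added for 1 h, followed by protease development for 1 h. Phosphorylation was read as the coumarin/fluorescein emission ratio.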

c-Src, sequence (P12931 whole entry, looked up): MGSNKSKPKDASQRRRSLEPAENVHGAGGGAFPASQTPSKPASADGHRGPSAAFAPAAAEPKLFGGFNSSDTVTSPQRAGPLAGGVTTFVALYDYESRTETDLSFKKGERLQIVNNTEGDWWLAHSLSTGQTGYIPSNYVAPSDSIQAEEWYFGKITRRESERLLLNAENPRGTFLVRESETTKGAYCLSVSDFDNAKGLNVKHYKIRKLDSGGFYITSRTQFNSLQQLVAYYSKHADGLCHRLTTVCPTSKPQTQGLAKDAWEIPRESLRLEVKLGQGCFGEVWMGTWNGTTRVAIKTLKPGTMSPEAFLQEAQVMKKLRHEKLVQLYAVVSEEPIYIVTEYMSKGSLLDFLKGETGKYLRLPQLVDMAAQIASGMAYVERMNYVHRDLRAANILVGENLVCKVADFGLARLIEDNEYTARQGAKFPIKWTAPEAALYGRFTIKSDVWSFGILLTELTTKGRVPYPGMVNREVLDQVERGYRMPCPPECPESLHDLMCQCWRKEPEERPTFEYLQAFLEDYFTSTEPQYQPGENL
p38 MAPKα (MAPK14), sequence (Q16539 whole entry): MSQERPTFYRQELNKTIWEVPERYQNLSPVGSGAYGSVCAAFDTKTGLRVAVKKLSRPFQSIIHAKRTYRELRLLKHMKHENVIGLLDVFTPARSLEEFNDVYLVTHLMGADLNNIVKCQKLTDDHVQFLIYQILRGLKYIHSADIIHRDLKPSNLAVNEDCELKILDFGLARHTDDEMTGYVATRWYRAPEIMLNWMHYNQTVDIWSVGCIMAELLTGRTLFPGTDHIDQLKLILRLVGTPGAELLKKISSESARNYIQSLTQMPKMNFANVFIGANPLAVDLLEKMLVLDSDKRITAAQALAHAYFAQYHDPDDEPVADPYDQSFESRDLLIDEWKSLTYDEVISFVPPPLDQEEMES

For `C#Cc1cc(Nc2cc(Oc3ccc(NC(=O)Nc4cc(C(C)(C)C)cc(NS(C)(=O)=O)c4OC)c4ccccc34)ccn2)ccc1C(=O)NCCN1CCOCC1` [Example 15, 4-[[4-[[4-[[5-tert-Butyl-3-(methanesulfonamido)-2-methoxy-phenyl]carbamoylamino]-1-naphthyl]oxy]-2-pyridyl]amino]-2-ethynyl-N-(2-morpholinoethyl)benzamide], testing at 5 µg/mL in the series with mitosis in PBMCs gave an inhibition of 62.3%. This compound also showed a pIC50 against p38 MAPKα (MAPK14) of 7.19. This compound gave a pIC50 against c-Src of 7.37. Also, in the series with Jurkat cells, the “% Viability at 1 μg/mL” value amounted to 99.5%, the “% Viability at 5 μg/mL” value turned out to be 75.0% and the “% Viability at 20 μg/mL” value came out at 74.5%. The pIC50 at Syk was 6.79.
`COc1c(NC(=O)Nc2ccc(Oc3ccnc(Nc4ccc(OCCN5CCOCC5)c(C#N)c4)c3)c3ccccc23)cc(C(C)(C)C)cc1NS(C)(=O)=O` [Example 9, N-(5-(tert-Butyl)-3-(3-(4-((2-((3-cyano-4-(2-morpholinoethoxy)phenyl)amino)pyridin-4-yl)oxy)naphthalen-1-yl)ureido)-2-methoxyphenyl)methanesulfonamide]: the inhibition at 5 µg/mL in the series with mitosis in PBMCs was found to be 29.8%. For the same compound, the figures for the pIC50 at p38 MAPKα (MAPK14), at c-Src and against Syk were 6.71, 6.50 and under 5.89, respectively.
In the same order, the values of `COc1cc(Nc2cc(Oc3ccc(NC(=O)Nc4cc(C(C)(C)C)cc(NS(C)(=O)=O)c4OC)c4ccccc34)ccn2)ccc1C(=O)NCCCN1CCN(C)CC1` [17(aa), 4-[[4-[[4-[[5-tert-butyl-3-(methanesulfonamido)-2-methoxy-phenyl]carbamoylamino]-1-naphthyl]oxy]-2-pyridyl]amino]-2-methoxy-N-[3-(4-methylpiperazin-1-yl)propyl]benzamide] are 77.7%, 7.70, 7.62 and 7.21.
With `COc1cc(Nc2cc(Oc3ccc(NC(=O)Nc4cc(C(C)(C)C)cc(NS(C)(=O)=O)c4OC)c4ccccc34)ccn2)ccc1C(=O)NCCN1CCCCC1` [17(p), 4-[[4-[[4-[[5-tert-butyl-3-(methanesulfonamido)-2-methoxy-phenyl]carbamoylamino]-1-naphthyl]oxy]-2-pyridyl]amino]-2-methoxy-N-[2-(1-piperidyl)ethyl]benzamide], in the series with mitosis in PBMCs, at 5 µg/mL the inhibition was 92%. This compound gave a pIC50 against p38 MAPKα (MAPK14) of 7.70. This compound also had a pIC50 at c-Src of 7.68. For the same compound, in the series with Jurkat cells, the “% Viability at 1 μg/mL” value was 102.1%, the “% Viability at 5 μg/mL” value came to 49.9% and the “% Viability at 20 μg/mL” value amounted to 1.5%. The same compound gave a negative-log IC50 (pIC50) against Syk of 6.76.
For the compound `COc1cc(Nc2cc(Oc3ccc(NC(=O)Nc4cc(C(C)(C)C)cc(NS(C)(=O)=O)c4OC)c4ccccc34)ccn2)cc(OC)c1C(=O)NCCN1CCOCC1` [17(ae), 4-[[4-[[4-[[5-tert-butyl-3-(methanesulfonamido)-2-methoxy-phenyl]carbamoylamino]-1-naphthyl]oxy]-2-pyridyl]amino]-2,6-dimethoxy-N-(2-morpholinoethyl)benzamide], in the series with mitosis in PBMCs, the inhibition at 5 µg/mL came to 30.6%. The negative logarithm of the IC50 (pIC50) against p38 MAPKα (MAPK14) was 8.00; against c-Src it was 7.51; on Syk, 6.95. In addition, in the series on Jurkat cells, the “% Viability at 1 μg/mL” value was 93.1%. In addition, in the series with Jurkat cells, the “% Viability at 5 μg/mL” value was found to be 98.5%. In addition, the “% Viability at 20 μg/mL” value in the series on Jurkat cells is on record as 92.9%.
Consider `COc1cc(Nc2cc(Oc3ccc(NC(=O)Nc4cc(C(C)(C)C)cc(NS(C)(=O)=O)c4OC)c4ccccc34)ccn2)ccc1C(=O)NCCN1CCOCC1(C)C` [17(k), 4-[[4-[[4-[[5-tert-butyl-3-(methanesulfonamido)-2-methoxy-phenyl]carbamoylamino]-1-naphthyl]oxy]-2-pyridyl]amino]-N-[2-(3,3-dimethylmorpholin-4-yl)ethyl]-2-methoxy-benzamide], for which the inhibition at 5 µg/mL in the series with mitosis in PBMCs came to 24%. Further, the values for the pIC50 on p38 MAPKα (MAPK14), on c-Src and on Syk were 6.81, 7.13 and 6.47, respectively.
The compound `COc1cc(Nc2cc(Oc3ccc(NC(=O)Nc4cc(C(C)(C)C)cc(NS(C)(=O)=O)c4OC)c4ccccc34)ccn2)ccc1C(=O)NCCN1CCC(O)CC1` [17(m), 4-[[4-[[4-[[5-tert-butyl-3-(methanesulfonamido)-2-methoxy-phenyl]carbamoylamino]-1-naphthyl]oxy]-2-pyridyl]amino]-N-[2-(4-hydroxy-1-piperidyl)ethyl]-2-methoxy-benzamide] yielded an inhibition at 5 µg/mL in the series on mitosis in PBMCs of 80.5%. For the same compound, the pIC50 is 7.60 against p38 MAPKα (MAPK14), 7.72 against c-Src and 6.72 on Syk.
On the same counts, the results for `COc1cc(Nc2cc(Oc3ccc(NC(=O)Nc4cc(C(C)(C)C)cc(NS(C)(=O)=O)c4OC)c4ccccc34)ccn2)ccc1C(=O)NC1CCN(C)CC1` [17(j), 4-[[4-[[4-[[5-tert-butyl-3-(methanesulfonamido)-2-methoxy-phenyl]carbamoylamino]-1-naphthyl]oxy]-2-pyridyl]amino]-2-methoxy-N-(1-methyl-4-piperidyl)benzamide] are 85.4%, 7.68, 7.80 and 7.41.
In the same order, the values of `COc1cc(Nc2cc(Oc3ccc(NC(=O)Nc4cc(C(C)(C)C)cc(NS(C)(=O)=O)c4OC)c4ccccc34)ccn2)ccc1C(=O)NCCN1CCS(=O)(=O)CC1` [17(r), 4-[[4-[[4-[[5-tert-butyl-3-(methanesulfonamido)-2-methoxy-phenyl]carbamoylamino]-1-naphthyl]oxy]-2-pyridyl]amino]-N-[2-(1,1-dioxo-1,4-thiazinan-4-yl)ethyl]-2-methoxy-benzamide] are 36.6%, 6.92, 7.43 and 6.99.
In the same order, the values of `COc1cc(Nc2cc(Oc3ccc(NC(=O)Nc4cc(C(C)(C)C)cc(NS(C)(=O)=O)c4OC)c4ccccc34)ccn2)ccc1C(=O)NCCN1CCOCC1` [Example 2, 4-((4-((4-(3-(5-(tert-Butyl)-2-methoxy-3-(methylsulfonamido)phenyl)ureido)naphthalen-1-yl)oxy)pyridin-2-yl)amino)-2-methoxy-N-(2-morpholinoethyl)benzamide] are 48%, 7.70, 7.70 and 6.76.
Regarding `COCCOCCOCCNC(=O)c1ccc(Nc2cc(Oc3ccc(NC(=O)Nc4cc(C(C)(C)C)cc(C(N)=O)c4OC)c4ccccc34)ccn2)cc1OC` [Example 6, 4-((4-((4-(3-(5-(tert-Butyl)-3-carbamoyl-2-methoxyphenyl)ureido)naphthalen-1-yl)oxy)pyridin-2-yl)amino)-2-methoxy-N-(2-(2-(2-methoxyethoxy)ethoxy)ethyl)benzamide], at 5 µg/mL the inhibition in the series on mitosis in PBMCs was 28.8%. In addition, the pIC50 against p38 MAPKα (MAPK14) was 6.86; at c-Src, 7.44; on Syk, 6.50.
As to `COCCOCCOCC[S+]([O-])c1ccc(Nc2cc(Oc3ccc(NC(=O)Nc4cc(C(C)(C)C)cc(NS(C)(=O)=O)c4OC)c4ccccc34)ccn2)cc1OC` (stereo not shown) [Example 11, N-(5-(tert-Butyl)-2-methoxy-3-(3-(4-((2-((3-methoxy-4-((2-(2-(2-methoxyethoxy)ethoxy)ethyl)sulfinyl)phenyl)amino)pyridin-4-yl)oxy)naphthalen-1-yl)ureido)phenyl)methanesulfonamide], at 5 µg/mL the inhibition in the series with mitosis in PBMCs was 26.6%. Further, the negative-log IC50 (pIC50) on p38 MAPKα (MAPK14) is 7.46; at c-Src, 7.12; against Syk, 6.50.
On the same counts, the results for `COCCOCCOCCNC(=O)c1ccc(Nc2cc(Oc3ccc(NC(=O)Nc4cc(C(C)(C)C)cc(NS(C)(=O)=O)c4OC)c4ccccc34)ccn2)cc1OC` [Example 5, 4-((4-((4-(3-(5-(tert-Butyl)-2-methoxy-3-(methylsulfonamido)phenyl)ureido)naphthalen-1-yl)oxy)pyridin-2-yl)amino)-2-methoxy-N-(2-(2-(2-methoxyethoxy)ethoxy)ethyl)benzamide] are 27.7%, 6.92, 7.51 and 6.73.
